In patent publication US12370202B2, “Methods and compositions for inhibiting the NLRP3 inflammasome and/or LON protease” (TRITERPENOID THERAPEUTICS, INC., priority 2019, dated 2025):

Key:
NLRP3 inflammasome = NLRP3 inflammasome activation in LPS-primed BMDM, IL-1β ELISA; assay type: cell-based, mouse
Procedure: FIG. 4A depicts an experimental design and FIG. 4B is a bar graph. Ixazomib (IXZ) potentiation of NLRP3 inflammasome activation inhibited by CDDO-2P-Im. Bone marrow derived macrophages (BMDM) were treated with Ixazomib (IXZ) and LPS (100 ng/ml) for 20 hours. Primed-BMDM were treated with CDDO-2P-Im (100 nM) for 15 min, followed by stimulation of ATP (5 mM) for 45 min. Supernatant were analyzed by ELISA for IL-1β release.
FIG. 6 is a set of bar graphs. CDDO-Im, CDDO-2P-Im (right panel), and CDDO-3P-Im (left panel) inhibit IL-1β production by NLRP3 inflammasome activation. LPS primed-BMDM were treated with different doses of CDDO-Im, CDDO-2P-Im, or CDDO-3P-Im for 15 min before ATP (5 mM) was added for 45 min. Supernatant were analyzed by ELISA for IL-1β.
To explore the potential that CDDO-2P-IM may enhance the MM response to proteasome inhibitors via inhibition of inflammasome activity, the effect of CDDO-2P-IM on activation of the NLRP3 complex (as defined by IL-1β production), in the presence or absence of IXZ in primary mouse bone marrow derived macrophages (BMDM) was evaluated. In the experiment, BMDM were primed by lipopolysaccharide (LPS) in the presence or absence of IXZ for 4 hours, followed by a brief ([…]) exposure to CDDO-2P-IM after which inflammasome activation was triggered by ATP.
The effects of the pyridyl derivatives of CDDO-IM, (specifically, CDDO-2P-Im and CDDO-3P-Im) on NLRP3 inflammasome activation were tested in mouse BMDMs. Cells were first primed with LPS for 4 hours, then pretreated with specific doses of either CDDO-Im, CDDO-2P-IM or CDDO-3P-Im (30-1000 nM) for 15 min before ATP was added for another 45 min. CDDO-Im and its pyridyl derivatives inhibited the amount of caspase-p10 (an auto-processed fragment of caspase-1) released into cell culture supernatants in a dose-dependent manner as measured by Western blot (FIG. 5). […] The effect on caspase-1 activation is specific for the NLRP3 inflammasome as the AIM2 inflammasome activation by poly(dA:dT) was not inhibited by the synthetic CDDO-Im derivatives (data not shown).

NLRP3 = experiment: Mono-sodium urate (MSU)-induced peritonitis; assay type: in vivo, Mice; conditions: MSU crystals 1 mg/mouse i.p.; lavage four to sixteen hours later
Procedure: FIG. 7 is a bar graph. CDDO-Im, CDDO-2P-Im, and CDDO-3P-Im inhibit mono-sodium urate (MSU)-induced peritonitis. Peritoneal cavity IL-1β levels expressed as mean and SEM (n=6).
Mice received intraperitoneal (i.p.) injections of mono-sodium urate (MSU) crystals (1 mg/mouse) in the presence or absence of CDDO-Im, CDDO-2P-Im, or CDDO-3P-Im. Due to its particulate material, MSU crystals are potent activators of the NOD-like receptor NLRP3. Four to sixteen hours later a peritoneal lavage was conducted to collect supernatant from the peritoneal cavity.

CC1(C)CC[C@]2(C(=O)n3cnc(-c4ccccn4)c3)CC[C@]3(C)[C@H](C(=O)C=C4[C@@]5(C)C=C(C#N)C(=O)C(C)(C)[C@@H]5CC[C@]43C)[C@@H]2C1 [CDDO-2P-Im, 1-[2-Cyano-3,12-dioxooleana-1,9(11)-dien-28-oyl]-4(-pyridin-2-yl)-1H-imidazole]
IL-1β release, IXZ potentiation of NLRP3 inflammasome activation (NLRP3 inflammasome; BMDM primed with IXZ and LPS, CDDO-2P-Im 100 nM 15 min before ATP (5 mM) 45 min): inhibited | NLRP3 inflammasome activation (IL-1β production) (NLRP3 inflammasome; BMDM primed with LPS in absence of IXZ, ATP trigger): direct suppression | IL-1β production by NLRP3 inflammasome activation (NLRP3 inflammasome; LPS primed BMDM, different doses (30-1000 nM) 15 min before ATP (5 mM) 45 min, ELISA): inhibit | MSU-induced peritonitis (peritoneal cavity IL-1β levels) (NLRP3): inhibit
